Test results reported in ChEMBL document CHEMBL4480391, “Discovery and synthesis of sulfur-containing 6-substituted 5,8-dimethoxy-1,4-naphthoquinone oxime derivatives as new and potential anti-MDR cancer agents” (Eur J Med Chem, 2019).
Calls of active or inactive are those of the source. No cut-off for these calls is given here.

What was measured:
[1] = tested on: HCT-15; test: Cytotoxicity against human HCT15 cells after 72 hrs by MTT assay; type: functional, cell-based; settings: HCT-15, 72 h
[2] = tested on: MGC-803; test: Cytotoxicity against human MGC803 cells after 72 hrs by MTT assay; type: functional, cell-based; settings: MGC-803, 72 h
[3] = tested on: K562; test: Cytotoxicity against human K562 cells after 72 hrs by MTT assay; type: functional, cell-based; settings: K562, 72 h
[4] = Cytotoxicity against human HSF cells after 72 hrs by MTT assay; type: cell-based
[5] = Selectivity index, ratio of IC50 for human HSF cells to IC50 for human HCT15 cells; type: toxicity; settings: HSF cells versus HCT15 cells, read-out: Ratio IC50
[6] = Cytotoxicity against human […] cells after 72 hrs by MTT assay; type: functional, cell-based
[7] = tested on: Bel7402/5-FU; test: Cytotoxicity against human Bel7402/5-FU cells after 72 hrs by MTT assay; type: functional, cell-based
[8] = tested on: MCF7; test: Cytotoxicity against human MCF7 cells after 72 hrs by MTT assay; type: functional, cell-based; settings: MCF7, 72 h
[9] = tested on: NCI/ADR-RES; test: Cytotoxicity against human MCF7/ADR cells after 72 hrs by MTT assay; type: functional, cell-based
[10] = tested on: A549; test: Cytotoxicity against human A549 cells after 72 hrs by MTT assay; type: functional, cell-based; settings: A549, 72 h
[11] = tested on: A549/TR; test: Cytotoxicity against human A549/TAX cells after 72 hrs by MTT assay; type: functional, cell-based
[12] = Selectivity ratio of IC50 for human […] cells to IC50 for human Bel7402/5-FU cells; type: functional
[13] = Selectivity ratio of IC50 for human MCF7 cells to IC50 for human MCF7/ADR cells; type: functional
[14] = Selectivity ratio of IC50 for human A549 cells to IC50 for human A549/TAX cells; type: functional
[15] = tested on: HCT-15; test: Potency index, ratio of shikonin IC50 to test compound IC50 for human HCT15 cells; type: functional
[16] = tested on: MGC-803; test: Potency index, ratio of shikonin IC50 to test compound IC50 for human MGC803 cells; type: functional
[17] = tested on: K562; test: Potency index, ratio of shikonin IC50 to test compound IC50 for human K562 cells; type: functional
[18] = tested on: Bel7402/5-FU; test: Inhibition of colony formation in human Bel7402/5-FU cells up to 4 uM measured after 10 days by giemsa staining based assay; type: functional, cell-based
[19] = tested on: Bel7402/5-FU; test: Cell cycle arrest in human Bel7402/5-FU cells assessed as decrease in accumulation at S phase at 0.25 to 1 uM measured after 24 hrs by propidium iodide staining based flow cytometry; type: functional
[20] = tested on: Bel7402/5-FU; test: Cell cycle arrest in human Bel7402/5-FU cells assessed as decrease in accumulation at G2/M phase at 0.25 to 1 uM measured after 24 hrs by propidium iodide staining based flow cytometry; type: functional
[21] = tested on: Bel7402/5-FU; test: Cell cycle arrest in human Bel7402/5-FU cells assessed as accumulation at G1 phase at 0.25 uM measured after 24 hrs by propidium iodide staining based flow cytometry (reference value: 26.32%); type: functional
[22] = tested on: Bel7402/5-FU; test: Cell cycle arrest in human Bel7402/5-FU cells assessed as accumulation at G1 phase at 0.5 uM measured after 24 hrs by propidium iodide staining based flow cytometry (reference value: 26.32%); type: functional
[23] = tested on: Bel7402/5-FU; test: Cell cycle arrest in human Bel7402/5-FU cells assessed as accumulation at G1 phase at 1 uM measured after 24 hrs by propidium iodide staining based flow cytometry (reference value: 26.32%); type: functional
[24] = tested on: Bel7402/5-FU; test: Cell cycle arrest in human Bel7402/5-FU cells assessed as increase in accumulation at G1 phase measured after 24 hrs by propidium iodide staining based flow cytometry; type: functional
[25] = tested on: Bel7402/5-FU; test: Induction of apoptosis in human Bel7402/5-FU cells assessed as cell shrinkage at 0.5 to 2 uM measured after 24 hrs by Hoechst 33342/propidium iodide staining based fluorescence microscopy; type: functional
[26] = tested on: Bel7402/5-FU; test: Induction of apoptosis in human Bel7402/5-FU cells assessed as nuclear fragmentation at 0.5 to 2 uM measured after 24 hrs by Hoechst 33342/propidium iodide staining based fluorescence microscopy; type: functional, cell-based
[27] = tested on: Bel7402/5-FU; test: Induction of apoptosis in human Bel7402/5-FU cells measured after 24 hrs by Annexin V-FITC/propidium iodide staining based flow cytometry; type: functional, cell-based
[28] = tested on: Bel7402/5-FU; test: Induction of apoptosis in human Bel7402/5-FU cells assessed as viable cells at 0.5 uM measured after 24 hrs by Annexin V-FITC/propidium iodide staining based flow cytometry (reference value: 89%); type: functional; settings: read-out: Activity
[29] = tested on: Bel7402/5-FU; test: Induction of apoptosis in human Bel7402/5-FU cells assessed as early apoptotic cells at 0.5 uM measured after 24 hrs by Annexin V-FITC/propidium iodide staining based flow cytometry (reference value: 2.8%); type: functional
[30] = tested on: Bel7402/5-FU; test: Induction of apoptosis in human Bel7402/5-FU cells assessed as late apoptotic cells at 0.5 uM measured after 24 hrs by Annexin V-FITC/propidium iodide staining based flow cytometry (reference value: 8.05%); type: functional
[31] = tested on: Bel7402/5-FU; test: Induction of apoptosis in human Bel7402/5-FU cells assessed as necrotic cells at 0.5 uM measured after 24 hrs by Annexin V-FITC/propidium iodide staining based flow cytometry (reference value: 0.137%); type: functional
[32] = tested on: Bel7402/5-FU; test: Induction of apoptosis in human Bel7402/5-FU cells assessed as viable cells at 1 uM measured after 24 hrs by Annexin V-FITC/propidium iodide staining based flow cytometry (reference value: 89%); type: functional; settings: read-out: Activity
[33] = tested on: Bel7402/5-FU; test: Induction of apoptosis in human Bel7402/5-FU cells assessed as early apoptotic cells at 1 uM measured after 24 hrs by Annexin V-FITC/propidium iodide staining based flow cytometry (reference value: 2.8%); type: functional
[34] = tested on: Bel7402/5-FU; test: Induction of apoptosis in human Bel7402/5-FU cells assessed as late apoptotic cells at 1 uM measured after 24 hrs by Annexin V-FITC/propidium iodide staining based flow cytometry (reference value: 8.05%); type: functional
[35] = tested on: Bel7402/5-FU; test: Induction of apoptosis in human Bel7402/5-FU cells assessed as necrotic cells at 1 uM measured after 24 hrs by Annexin V-FITC/propidium iodide staining based flow cytometry (reference value: 0.137%); type: functional
[36] = tested on: Bel7402/5-FU; test: Induction of apoptosis in human Bel7402/5-FU cells assessed as viable cells at 2 uM measured after 24 hrs by Annexin V-FITC/propidium iodide staining based flow cytometry (reference value: 89%); type: functional; settings: read-out: Activity
[37] = tested on: Bel7402/5-FU; test: Induction of apoptosis in human Bel7402/5-FU cells assessed as early apoptotic cells at 2 uM measured after 24 hrs by Annexin V-FITC/propidium iodide staining based flow cytometry (reference value: 2.8%); type: functional
[38] = tested on: Bel7402/5-FU; test: Induction of apoptosis in human Bel7402/5-FU cells assessed as late apoptotic cells at 2 uM measured after 24 hrs by Annexin V-FITC/propidium iodide staining based flow cytometry (reference value: 8.05%); type: functional
[39] = tested on: Bel7402/5-FU; test: Induction of apoptosis in human Bel7402/5-FU cells assessed as necrotic cells at 2 uM measured after 24 hrs by Annexin V-FITC/propidium iodide staining based flow cytometry (reference value: 0.137%); type: functional
[40] = tested on: Bel7402/5-FU; test: Induction of apoptosis in human Bel7402/5-FU cells assessed as increase in ratio of Bax/Bcl2 level at 0.5 to 4 uM measured after 24 to 48 hrs by Western blot analysis; type: functional, cell-based

CCCCCCCCC(SC(=O)c1ccc(C)cc1)c1cc(OC)c2c(c1OC)/C(=N/O)C=C/C2=N\O (stereo not drawn)
IC50 [1]: 530 nM
IC50 [2]: 940 nM
IC50 [3]: 970 nM
IC50 [4]: > 50000 nM
selectivity ratio [5]: > 94.3
IC50 [6]: 930 nM
IC50 [7]: 760 nM
IC50 [8]: 18800 nM
IC50 [9]: 3980 nM
IC50 [10]: 13900 nM
IC50 [11]: 1820 nM
Ratio IC50 [12]: 1.22
Ratio IC50 [13]: 4.74
Ratio IC50 [14]: 7.62

CCCCCCCC(SCCC(C)C)c1cc(OC)c2c(c1OC)/C(=N/O)C=C/C2=N\O (stereo not drawn)
IC50 [1]: 820 nM
IC50 [2]: 1350 nM
IC50 [3]: 1000 nM
IC50 [4]: > 50000 nM
selectivity ratio [5]: > 61
IC50 [6]: 4470 nM
IC50 [7]: 2920 nM
IC50 [8]: 38600 nM
IC50 [9]: 18500 nM
IC50 [10]: 24300 nM
IC50 [11]: 4520 nM
Ratio IC50 [12]: 1.53
Ratio IC50 [13]: 2.09
Ratio IC50 [14]: 5.38

CCCCCCCCC(SC(=O)/C=C/c1ccccc1)c1cc(OC)c2c(c1OC)/C(=N/O)C=C/C2=N\O (stereo not drawn)
IC50 [1]: 380 nM
IC50 [2]: 790 nM
IC50 [3]: 460 nM
IC50 [4]: > 50000 nM
selectivity ratio [5]: > 132
Ratio IC50 [15]: 2
Ratio IC50 [16]: 2
Ratio IC50 [17]: 2
IC50 [6]: 420 nM
IC50 [7]: 290 nM
IC50 [8]: 11100 nM
IC50 [9]: 1330 nM
IC50 [10]: 6570 nM
IC50 [11]: 720 nM
Ratio IC50 [12]: 1.45
Ratio IC50 [13]: 8.37
Ratio IC50 [14]: 9.13
inhibition [18]: Active
Activity [19]: Active
Activity [20]: Active
Activity [21]: 35.56%
Activity [22]: 44.5%
Activity [23]: 50.69%
Activity [24]: Dose-dependent effect
Activity [25]: Active
Activity [26]: Active
Activity [27]: Dose-dependent effect
viability at 0.5 µM [28]: 64.4%
Activity [29]: 22.1%
Activity [30]: 12.3%
Activity [31]: 1.17%
viability at 1 µM [32]: 47.9%
Activity [33]: 32.2%
Activity [34]: 15.2%
Activity [35]: 4.64%
viability at 2 µM [36]: 10.7%
Activity [37]: 58.3%
Activity [38]: 29.2%
Activity [39]: 1.7%
Activity [40]: Active

CCCCCCCCC(SCCC(C)C)c1cc(OC)c2c(c1OC)/C(=N/O)C=C/C2=N\O (stereo not drawn)
IC50 [1]: 540 nM
IC50 [2]: 1090 nM
IC50 [3]: 760 nM
IC50 [4]: > 50000 nM
selectivity ratio [5]: > 92.6
IC50 [6]: 2310 nM
IC50 [7]: 730 nM
IC50 [8]: 33600 nM
IC50 [9]: 14000 nM
IC50 [10]: 18900 nM
IC50 [11]: 1180 nM
Ratio IC50 [12]: 3.16
Ratio IC50 [13]: 2.41
Ratio IC50 [14]: 16

CCCCCCCCCC(SC(=O)c1cc(OC)c(OC)c(OC)c1)c1cc(OC)c2c(c1OC)/C(=N/O)C=C/C2=N\O (stereo not drawn)
IC50 [1]: 820 nM
IC50 [2]: 1250 nM
IC50 [3]: 790 nM
IC50 [4]: > 50000 nM
selectivity ratio [5]: > 61
IC50 [6]: 1340 nM
IC50 [7]: 1120 nM
IC50 [8]: 19300 nM
IC50 [9]: 5480 nM
IC50 [10]: 16100 nM
IC50 [11]: 1010 nM
Ratio IC50 [12]: 1.2
Ratio IC50 [13]: 3.51
Ratio IC50 [14]: 15.9

CCCCCCCCC(SC(=O)c1ccc(OC)c(OC)c1)c1cc(OC)c2c(c1OC)/C(=N/O)C=C/C2=N\O (stereo not drawn)
IC50 [1]: 460 nM
IC50 [2]: 950 nM
IC50 [3]: 750 nM
IC50 [4]: > 50000 nM
selectivity ratio [5]: > 109
IC50 [6]: 740 nM
IC50 [7]: 570 nM
IC50 [8]: 13100 nM
IC50 [9]: 2630 nM
IC50 [10]: 10400 nM
IC50 [11]: 960 nM
Ratio IC50 [12]: 1.3
Ratio IC50 [13]: 4.97
Ratio IC50 [14]: 10.9

CCCCCCCCC(SC(=O)c1cc(OC)c(OC)c(OC)c1)c1cc(OC)c2c(c1OC)/C(=N/O)C=C/C2=N\O (stereo not drawn)
IC50 [1]: 500 nM
IC50 [2]: 910 nM
IC50 [3]: 680 nM
IC50 [4]: > 50000 nM
selectivity ratio [5]: > 100
IC50 [6]: 560 nM
IC50 [7]: 310 nM
IC50 [8]: 14800 nM
IC50 [9]: 2470 nM
IC50 [10]: 9280 nM
IC50 [11]: 810 nM
Ratio IC50 [12]: 1.81
Ratio IC50 [13]: 6.01
Ratio IC50 [14]: 11.5

CCCCCCCC(SC(=O)c1cc(OC)c(OC)c(OC)c1)c1cc(OC)c2c(c1OC)/C(=N/O)C=C/C2=N\O (stereo not drawn)
IC50 [1]: 980 nM
IC50 [2]: 1210 nM
IC50 [3]: 850 nM
IC50 [4]: > 50000 nM
selectivity ratio [5]: > 51
IC50 [6]: 2960 nM
IC50 [7]: 1560 nM
IC50 [8]: 20700 nM
IC50 [9]: 7880 nM
IC50 [10]: 17900 nM
IC50 [11]: 2250 nM
Ratio IC50 [12]: 1.9
Ratio IC50 [13]: 2.7
Ratio IC50 [14]: 7.96
